Measurements published in paper PMC12447755, “β-Lactamase cleavable antimicrobial peptide–drug conjugates” (Chemical Science, 2025).
Values after ≈ are worked out from the molar mass of the structure shown. Where two headings read alike, the source gives them in different places. Where a SMILES comes first, the peptide text is derived from it. Where no end group is shown, it is not given here.

Experiments:
[1] = system: Pseudomonas aeruginosa strain PAO1; assay: Initial susceptibility testing at a fixed concentration; format: cell-based; design: key: Tick (✓) represents OD600 comparable to no-growth control; cross (✗) represents OD600 comparable to growth control without any peptide; settings: 256 μg mL−1 of peptide, overnight incubation, OD600 compared with growth and no-growth controls
[2] = system: P. aeruginosa strain PA14; settings: for MIC PA14: PA14, 16 h; for MIC for PA14: PA14, 18 h
[3] = system: P. aeruginosa strain PAO1; settings: for MIC PAO1: PAO1, 16 h
[4] = system: P. aeruginosa
[5] = system: Klebsiella pneumoniae CK1; settings: CK1, 16 h
[6] = system: Serratia marcescens ATCC39006; settings: ATCC39006, 16 h
[7] = system: Escherichia coli DH5a; settings: 16 h
[8] = system: Enterococcus faecalis ATCC29212; settings: ATCC29212, 16 h
[9] = Background stability in PBS buffer; format: physicochemical; settings: PBS buffer pH 7.4 (50 mM), 37 °C, HPLC at 280 nm, Fig. 5a; values not given
[10] = human serum 100 µL in 400 µL MES buffer (pH 6, 50 mM), 37 °C, protein precipitated with 1:1 DMSO:ethanol, HPLC at 220 nm, caffeine standard; Fig. 5b, values not given
[11] = system: PAO1 strain containing plasmid pUCP20, which encodes a β-lactamase; assay: MIC determination using broth microdilution method; format: cell-based, Pseudomonas aeruginosa
[12] = system: Methicillin-resistant Staphylococcus aureus MRSA15; settings: Table 4; broth microdilution in MH medium, 37 °C, 16 h
[13] = system: P. aeruginosa; assay: Drug synergism assay; format: cell-based, Pseudomonas aeruginosa; settings: P2a combined with ciprofloxacin, checkerboard in MH medium, 37 °C, 16 h; synergy threshold 0.5; strain not stated
Experimental: measured and 15 µL of thiazolyl blue tetrazolium bromide (MTT; 1 mg/mL stock solution in water; Acros) was added to each well of the plate. The MIC was defined as the lowest concentration of the compound with a colourless well indicating no bacterial growth and the results cross-checked with OD600 reading. Each sample was run in triplicate on the same plate. Polymyxin B or ciprofloxacin or both were used as positive controls to ensure comparability of results across different experiments.
Bacterial culture was quantified by measuring the OD600, medium exchanged to MH-medium and culture diluted to OD600 of 0.022 in MH-medium. Stock solution of compound A was diluted to twice the starting concentration in MH medium. […] The next day, OD600 of the microtiter plate was measured and 15 µL of thiazolyl blue tetrazolium bromide (MTT; 1 mg/mL stock solution in water) was added to each well of the plate to cross-check the OD600 readings. […]
150 µL of the solution was added to 96-well plate (3 wells per bacterium) as well as 150 µL of MH medium as a negative control (further 3 wells per bacterium). The media were inoculated with 4 µL of the diluted bacterial solution and incubated in a plate reader at 37◦C for 16 h and absorption at 482 nm (Abs482) and 600 nm (OD600) was continuously measured throughout the incubation. […]

[14] = system: Burkholderia thailandensis E264; settings: Table 4; broth microdilution in MH medium, 37 °C, 16 h
[15] = system: Enterococcus faecalis ATCC29212; assay: microbe, parasite or virus in culture; settings: ATCC29212, 16 h
[16] = system: P. aeruginosa strain PAO1; assay: microbe, parasite or virus in culture; settings: Pseudomonas aeruginosa, PAO1, 16 h, read-out: MIC for PAO1
[17] = system: Serratia marcescens ATCC39006; assay: microbe, parasite or virus in culture; settings: ATCC39006, 16 h
[18] = system: Escherichia coli DH5a; assay: microbe, parasite or virus in culture; settings: 16 h
[19] = system: P. aeruginosa strain PA14; assay: microbe, parasite or virus in culture; settings: Pseudomonas aeruginosa

Compound: C[C@H](NC(=O)[C@H](Cc1c[nH]c2ccccc12)NC(=O)[C@H](CCCCN)NC(=O)[C@H](CS)NC(=O)[C@@H](N)Cc1ccccc1)C(=O)N[C@@H](Cc1ccccc1)C(=O)N[C@@H](CCCCN)C(=O)N[C@@H](Cc1c[nH]c2ccccc12)C(=O)N[C@@H](CS)C(=O)N[C@@H](CCCCN)C(=O)N[C@@H](CCCCN)C(N)=O [P2] (H-FCKWAFKWCKK-NH2)
- Inh (inhibition) [1]: ✗
- MIC PA14 [2]: 32 µg/mL (≈ 21.7 µM)
- MIC PAO1 [3]: 32 µg/mL (≈ 21.7 µM)

Compound: C[C@@H]1NC(=O)[C@H](Cc2c[nH]c3ccccc23)NC(=O)[C@H](CCCCN)NC(=O)[C@@H](NC(=O)[C@@H](N)Cc2ccccc2)CSCCc2cc(nc(NCCCc3ccccc3)n2)CCSC[C@@H](C(=O)N[C@@H](CCCCN)C(=O)N[C@@H](CCCCN)C(N)=O)NC(=O)[C@H](Cc2c[nH]c3ccccc23)NC(=O)[C@H](CCCCN)NC(=O)[C@H](Cc2ccccc2)NC1=O [P2-1] (HELM PEPTIDE1{F.C.K.W.A.F.K.W.C.K.K.[am]}|CHEM1{[c1ccc(CCCNc2nc(CC[*:1])cc(CC[*:2])n2)cc1]}$PEPTIDE1,CHEM1,2:R3-1:R1|PEPTIDE1,CHEM1,9:R3-1:R2$$$V2.0)
- MIC of peptide-staple combinations (heat map) [4]: best activity
- MIC ([4]; 18 h): 8 to 16 µg/mL
- Inh (inhibition) [1]: ✓
- MIC PA14 [2]: 16 µg/mL (≈ 9.2 µM)
- MIC PAO1 [3]: 16 µg/mL (≈ 9.2 µM)

Compound: C[C@@H]1NC(=O)[C@H](Cc2c[nH]c3ccccc23)NC(=O)[C@H](CCCCN)NC(=O)[C@@H](NC(=O)[C@@H](N)Cc2ccccc2)CSCCc2cc(nc(NCCCC(=O)N[C@@H]3C(=O)N4C(C(=O)O)C(COC(=O)N5CCN(c6cc7c(cc6F)c(=O)c(C(=O)O)cn7C6CC6)CC5)=CS[C@H]34)n2)CCSC[C@@H](C(=O)N[C@@H](CCCCN)C(=O)N[C@@H](CCCCN)C(N)=O)NC(=O)[C@H](Cc2c[nH]c3ccccc23)NC(=O)[C@H](CCCCN)NC(=O)[C@H](Cc2ccccc2)NC1=O (stereo partly shown) [P2-10]
- MIC [5]: ≥ 64 µg/mL
- MIC [6]: 16 µg/mL (≈ 7.03 µM)
- MIC [7]: 1 µg/mL (≈ 0.439 µM)
- MIC [8]: 16 µg/mL (≈ 7.03 µM)
- MIC for PA14 [2]: 7.0 µM
- PA14 MIC ([2]; Table S3, initial MIC values): 16 µg/mL
- background hydrolysis rate mediated by buffer only [9]: significantly lower than when β-lactamase was present
- serum stability [10]: improved stability over unstapled P2a
- reduction in MIC in PAO1 with plasmid pUCP20 versus PAO1 ([11]; Fig. 4 and Table 3): one half
- MIC for PAO1 ([3]; PAO1, 18 h): 7.0 µM
- PAO1 MIC ([3]; Table S3, initial MIC values): 16 µg/mL
- MIC for PAO1 after adding β-lactamase ([3]; medium supplemented with 1 nM recombinant β-lactamase): 2 µg/mL

Compound: FAKWAFKWLKK-NH2 [P2a, reference compound]
- MIC [6]: ≥ 64 µg/mL
- MIC [7]: 4 µg/mL
- MIC [12]: 32 µg/mL
- Inh (inhibition) [1]: ✗
- MIC [8]: ≥ 64 µg/mL
- MIC PA14 [2]: 64 µg/mL
- PA14 MIC ([2]; Table S3, initial MIC values): 32 µg/mL
- PA14 MIC ([2]; Table S4): 22 µM
- fractional inhibitory concentration index [13]: 0.75
- cell growth inhibition in strain with plasmid versus without ([11]; OD600 growth curve, triplicate, Fig. 4b): no difference in cell growth inhibition
- PAO1 MIC ([3]; PAO1, 18 h): 11 µM
- PAO1 MIC ([3]; Table S4, cephalosporin-based staple 8 at different positions): 16 µg/mL

Compound: KWVQNYMKHLGRKAHTLKT-NH2 [P6a, reference compound]
- Inh (inhibition) [1]: ✓

Compound: CC(C)C[C@@H]1NC(=O)[C@H](CCCNC(=N)N)NC(=O)[C@H](Cc2c[nH]cn2)NC(=O)[C@@H](NC(=O)[C@H](CC(C)C)NC(=O)[C@H](CCCCN)NC(=O)[C@H](CCCNC(=N)N)NC(=O)[C@H](Cc2ccccc2)NC(=O)[C@H](CC(C)C)NC(=O)[C@@H](N)CC(N)=O)CSCCc2cc(nc(NCCCc3ccccc3)n2)CCSC[C@@H](C(=O)N[C@@H](Cc2ccccc2)C(=O)NCC(=O)N[C@@H](Cc2ccc(O)cc2)C(=O)N[C@H](C(=O)N[C@@H](CC(C)C)C(=O)N[C@@H](CCCNC(=N)N)C(N)=O)[C@@H](C)O)NC(=O)[C@H](CCCNC(=N)N)NC(=O)[C@H](CCCNC(=N)N)NC(=O)[C@H](Cc2ccccc2)NC1=O [P7-1] (HELM PEPTIDE1{N.L.F.R.K.L.C.H.R.L.F.R.R.C.F.G.Y.T.L.R.[am]}|CHEM1{[c1ccc(CCCNc2nc(CC[*:1])cc(CC[*:2])n2)cc1]}$PEPTIDE1,CHEM1,7:R3-1:R1|PEPTIDE1,CHEM1,14:R3-1:R2$$$V2.0)
- Inh (inhibition) [1]: ✗

Compound: CC(=O)OCC1=C(C(=O)O)N2C(=O)[C@@H](NC(=O)CCCNc3nc4cc(n3)CCSC[C@H](NC(=O)[C@@H](N)Cc3ccccc3)C(=O)N[C@@H](CCCCN)C(=O)N[C@@H](Cc3c[nH]c5ccccc35)C(=O)N[C@@H](C)C(=O)N[C@@H](Cc3ccccc3)C(=O)N[C@@H](CCCCN)C(=O)N[C@@H](Cc3c[nH]c5ccccc35)C(=O)N[C@H](C(=O)N[C@@H](CCCCN)C(=O)N[C@@H](CCCCN)C(N)=O)CSCC4)[C@H]2SC1 [P2-8]
- MIC [5]: ≥ 64 µg/mL
- MIC [6]: ≥ 64 µg/mL
- MIC [7]: 32 µg/mL (≈ 16.3 µM)
- MIC [12]: 64 µg/mL (≈ 32.6 µM)
- MIC [8]: 2 µg/mL (≈ 1.02 µM)
- MIC for PA14 [2]: > 33 µM
- MIC [14]: ≥ 64 µg/mL
- serum stability [10]: improved stability over unstapled P2a
- MIC for PAO1 ([3]; PAO1, 18 h): > 33 µM

Compound: O=C(O)c1cn(C2CC2)c2cc(N3CCNCC3)c(F)cc2c1=O [Ciprofloxacin, ciprofloxacin]
- MIC [15]: 0.5 µg/mL (≈ 1.51 µM)
- MIC [16]: 0.125 µg/mL (≈ 0.377 µM)
- PA14 MIC ([2]; Table S5): 0.0625 µg/mL
- MIC [17]: 0.0625 µg/mL (≈ 0.189 µM)
- MIC [18]: 0.0078 µg/mL (≈ 0.0235 µM)
- MIC ([19]; PA14, 16 h, read-out: MIC for PA14): 0.0625 µg/mL
- MIC ([19]; PA14, read-out: MIC for PA14): 0.19 µM
- MIC for PAO1 ([3]; Table 3, data combined from multiple experiments, standard medium): 0.38 µM
- PAO1 MIC ([3]; Table S5, altered linking region between peptide and cephalosporin): 0.125 µg/mL
